From US20230019491A1, “PYRIMIDINE TBK/IKKe INHIBITOR COMPOUNDS AND USES THEREOF” (Merck Patent GmbH, priority 2017, published 2023)
Counter-ions that a name gives are not always drawn.

Key:
IKKε = target: T1, IKKε (Homo sapiens, UniProt Q14164); test: IKKε biochemical assay; settings: 10 point 1:4 dose response, 30 uM top concentration, 90 min at 25° C., LabChip EZ Reader II; read-out: IKKε_IC50
T1 sequence (Q14164 1-716): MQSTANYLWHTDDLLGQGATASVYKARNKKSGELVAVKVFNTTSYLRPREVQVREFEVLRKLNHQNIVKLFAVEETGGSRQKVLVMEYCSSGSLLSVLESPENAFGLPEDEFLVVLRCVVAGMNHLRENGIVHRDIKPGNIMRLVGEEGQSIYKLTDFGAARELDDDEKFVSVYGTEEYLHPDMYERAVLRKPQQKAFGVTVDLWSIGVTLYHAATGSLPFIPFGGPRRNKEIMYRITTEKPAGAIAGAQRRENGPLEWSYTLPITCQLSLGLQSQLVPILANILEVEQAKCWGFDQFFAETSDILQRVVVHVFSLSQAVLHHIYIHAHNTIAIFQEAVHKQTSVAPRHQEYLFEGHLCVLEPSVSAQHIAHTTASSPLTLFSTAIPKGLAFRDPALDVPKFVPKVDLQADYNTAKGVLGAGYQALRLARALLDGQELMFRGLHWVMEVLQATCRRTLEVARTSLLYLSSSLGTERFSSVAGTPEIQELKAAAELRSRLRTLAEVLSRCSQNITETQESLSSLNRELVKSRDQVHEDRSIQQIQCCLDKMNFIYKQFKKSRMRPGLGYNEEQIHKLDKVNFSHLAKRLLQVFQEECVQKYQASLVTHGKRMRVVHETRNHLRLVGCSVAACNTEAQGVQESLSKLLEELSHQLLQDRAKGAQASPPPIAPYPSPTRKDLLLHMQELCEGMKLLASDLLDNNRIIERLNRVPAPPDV
In short: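 Compounds in 1% DMSO final were incubated with IKKε enzyme and substrate at 25° C. for 90 min, then stopped. Substrate and product peaks were resolved by LabChip EZ Reader II mobility-shift read-out. Staurosporine at 10 uM final served as the full-inhibition control.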

TBK1 = target: T2, TBK1 (Homo sapiens, UniProt Q9UHD2); test: TBK biochemical assay; settings: 10 point 1:4 dose response, 30 uM top concentration, 90 min at 25° C., LabChip EZ Reader II; read-out: TBK1_IC50
T2 sequence (Q9UHD2 1-729): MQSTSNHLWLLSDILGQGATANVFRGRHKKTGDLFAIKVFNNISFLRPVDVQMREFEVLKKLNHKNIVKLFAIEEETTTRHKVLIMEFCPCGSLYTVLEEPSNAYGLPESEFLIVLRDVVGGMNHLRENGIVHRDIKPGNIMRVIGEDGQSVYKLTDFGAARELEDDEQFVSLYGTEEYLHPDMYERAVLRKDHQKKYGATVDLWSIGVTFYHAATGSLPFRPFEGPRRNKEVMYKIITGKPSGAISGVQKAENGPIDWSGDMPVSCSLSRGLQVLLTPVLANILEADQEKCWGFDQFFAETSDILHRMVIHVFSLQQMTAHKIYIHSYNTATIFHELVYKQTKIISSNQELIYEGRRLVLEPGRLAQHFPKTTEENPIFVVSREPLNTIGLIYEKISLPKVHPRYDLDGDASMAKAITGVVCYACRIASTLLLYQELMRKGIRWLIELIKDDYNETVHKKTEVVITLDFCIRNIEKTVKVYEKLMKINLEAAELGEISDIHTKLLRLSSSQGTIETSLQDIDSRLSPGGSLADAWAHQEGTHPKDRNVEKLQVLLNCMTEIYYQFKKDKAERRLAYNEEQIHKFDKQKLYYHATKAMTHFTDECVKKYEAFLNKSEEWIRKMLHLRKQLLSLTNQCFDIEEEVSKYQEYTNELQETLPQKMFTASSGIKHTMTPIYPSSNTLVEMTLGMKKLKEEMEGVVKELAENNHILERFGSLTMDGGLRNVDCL
In short: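 Substrate and product were separated and quantified by microfluidic mobility-shift read (LabChip). 10 uM staurosporine served as the full-inhibition control, and the reference compound was tested from 1 uM final.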

IC50 (IKKε) [nM] | IC50 (TBK1) [nM] | Compound
< 100 | < 100 | N#Cc1cc(-c2ccnc(Nc3ccc(N4CCN(C5COC5)CC4)cc3)n2)ccc1OC1CCOCC1 [Example 135, 2-(oxan-4-yloxy)-5-[2-([4-[4-(oxetan-3-yl)piperazin-1-yl]phenyl]amino)pyrimidin-4-yl]benzonitrile]
100 to 1000 | 100 to 1000 | CN(C)C(=O)c1ccc(Nc2nccc(-c3ccc(OC4CCOCC4)c(C#N)n3)n2)nc1 [Example 27, 6-([4-[6-cyano-5-(oxan-4-yloxy)pyridin-2-yl]pyrimidin-2-yl]amino)-N,N-dimethylpyridine-3-carboxamide]
< 100 | < 100 | COc1nc(Nc2nccc(-c3ccc(OC4CCOCC4)c(C#N)c3)n2)ccc1C(=O)N1CCN(CCO)CC1 [Example 15, 5-(2-{5-[4-(2-Hydroxy-ethyl)-piperazine-1-carbonyl]-6-methoxy-pyridin-2-ylamino}-pyrimidin-4-yl)-2-(tetrahydro-pyran-4-yloxy)-benzonitrile]
< 100 | < 100 | COCCN1CCN(c2ccc(Nc3nccc(-c4ccc(OC5CCOCC5)c(C#N)c4)n3)nc2OC)CC1 [Example 166]
1000 to 5000 | > 5000 | CN1CCC(Oc2ccc(-c3ccnc(Nc4ccc(N5CCN(C)CC5)cn4)n3)cc2C#N)CC1 [Example 83, 5-(2-[[5-(4-methylpiperazin-1-yl)pyridin-2-yl]amino]pyrimidin-4-yl)-2-[(1-methylpiperidin-4-yl)oxy]benzonitrile]
< 100 | < 100 | COc1nc(Nc2nccc(-c3ccc(O[C@H]4CCN(C(=O)[C@@H](O)CO)C[C@@H]4F)c(C#N)c3)n2)ccc1N1CCN(C2COC2)CC1 [Example 197, 2-[(3S,4S)-1-((S)-2,3-Dihydroxy-propionyl)-3-fluoro-piperidin-4-yloxy]-5-{2 [6-methoxy-5-(4-oxetan-3-yl-piperazin-1-yl)-pyridin-2-ylamino]-pyrimidin-4-yl}-benzonitrile]
< 100 | < 100 | N#Cc1cc(-c2ccnc(Nc3ccc(N4CCN(C5COC5)CC4)cc3)n2)ccc1OC1CCNCC1(F)F (stereo not shown) [Example 136, 2-[(3,3-difluoropiperidin-4-yl)oxy]-5-[2-([4-[4-(oxetan-3-yl)piperazin-1-yl]phenyl]amino)pyrimidin-4-yl]benzonitrile]
< 100 | < 100 | COc1nc(Nc2nccc(-c3ccc(OC4CCN(C(=O)[C@H](C)O)CC4(F)F)c(C#N)c3)n2)ccc1N1CCOCC1 (stereo partly drawn) [Example 275, 2-([3,3-difluoro-1-[(2S)-2-hydroxypropanoyl]piperidin-4-yl]oxy)-5-(2-[[6-methoxy-5-(morpholin-4-yl)pyridin-2-yl]amino]pyrimidin-4-yl)benzonitrile]
< 100 | < 100 | COc1nc(Nc2nccc(-c3ccc(OC4CCN(C(=O)c5n[nH]c(C)n5)CC4)c(C#N)c3)n2)ccc1C(=O)N(C)C [Example 78, 6-([4-[3-cyano-4-([1-[(5-methyl-1H-1,2,4-triazol-3-yl)carbonyl]piperidin-4-yl]oxy)phenyl]pyrimidin-2-yl]amino)-2-methoxy-N,N-dimethylpyridine-3-carboxamide]
< 100 | < 100 | COc1nc(Nc2nccc(-c3ccc(OC4CCN(C(=O)[C@H](C)O)C(C)C4)c(C#N)c3)n2)ccc1N1CCN(C2COC2)CC1 (stereo partly drawn) [Example 266, 2-[1-((S)-2-Hydroxy-propionyl)-2-methyl-piperidin-4-yloxy]-5-{2-[6-methoxy-5-(4-oxetan-3-yl-piperazin-1-yl)-pyridin-2-ylamino]-pyrimidin-4-yl}-benzonitrile]

Second part, the compound before the results:

Compound | IC50 (IKKε) [nM] | IC50 (TBK1) [nM]
COc1nc(Nc2nccc(-c3ccc(N4CCC5(CC4)CN(C(=O)[C@H](C)O)C5)c(C#N)c3)n2)ccc1N1CCN(C2COC2)CC1 [Example 316, 2-[2-((S)-2-Hydroxy-propionyl)-2,7-diaza-spiro[3.5]non-7-yl]-5-{2-[6-methoxy-5-(4-oxetan-3-yl-piperazin-1-yl)-pyridin-2-ylamino]-pyrimidin-4-yl}-benzonitrile] | < 100 | < 100
COc1nc(Nc2nccc(-c3ccc(OC4CCN(C(=O)[C@@H](O)CO)CC4C)c(C#N)c3)n2)ccc1N1CCN(C2COC2)CC1 (stereo partly drawn) [Example 272, 2-[1-((S)-2,3-Dihydroxy-propionyl)-3-methyl-piperidin-4-yloxy]-5-{2-[6-methoxy-5-(4-oxetan-3-yl-piperazin-1-yl)-pyridin-2-ylamino]-pyrimidin-4-yl}-benzonitrile] | < 100 | < 100
tert-butyl 4-[2-cyano-5-methyl-4-[2-([4-[4-(oxetan-3-yl)piperazin-1-yl]phenyl]amino)pyrimidin-4-yl]phenoxy]-3,3-difluoropiperidine-1-carboxylate [Example 308] | < 100 | < 100
COc1nc(Nc2nccc(-c3ccc(OC4CCN(C(=O)CO)CC4)c(C#N)c3)n2)ccc1N1CCN(C)CC1 [Example 90, 2-[[1-(2-hydroxyacetyl)piperidin-4-yl]oxy]-5-(2-[[6-methoxy-5-(4-methylpiperazin-1-yl)pyridin-2-yl]amino]pyrimidin-4-yl)benzonitrile] | < 100 | < 100
COc1cc(Nc2nccc(-c3cc(C#N)c(OC4CCOCC4)cn3)n2)ncc1N1CCN(C)CC1 [Example 55, 2-(2-[[4-methoxy-5-(4-methylpiperazin-1-yl)pyridin-2-yl]amino]pyrimidin-4-yl)-5-(oxan-4-yloxy)pyridine-4-carbonitrile hydrochloride] | > 5000 | > 5000
COc1nc(Nc2nccc(-c3ccc(OC4CCOCC4)c(C#N)c3)n2)ccc1C(=O)NC1C2COCC21 (stereo not shown) [Example 8, 6-([4-[3-cyano-4-(oxan-4-yloxy)phenyl]pyrimidin-2-yl]amino)-2-methoxy-N-[3-oxabicyclo[3.1.0]hexan-6-yl]pyridine-3-carboxamide] | < 100 | < 100
COc1nc(Nc2nccc(-c3ccc(OC4CCN(C(=O)C(O)C5CC5)CC4(F)F)c(C#N)c3)n2)ccc1C1CCN(C2COC2)CC1 (stereo not shown) [Example 239, 2-[1-(2-Cyclopropyl-2-hydroxy-acetyl)-3,3-difluoro-piperidin-4-yloxy]-5-[2-(2-methoxy-1′-oxetan-3-yl-1′,2′,3′,4′,5′,6′-hexahydro-[3,4′]bipyridinyl-6-ylamino)-pyrimidin-4-yl]-benzonitrile] | < 100 | < 100
COc1nc(Nc2nccc(-c3ccc(OC4CCN(C)CC4)c(C#N)c3)n2)ccc1C(=O)N(C)C [Example 71, 6-[(4-[3-cyano-4-[(1-methylpiperidin-4-yl)oxy]phenyl]pyrimidin-2-yl)amino]-2-methoxy-N,N-dimethylpyridine-3-carboxamide hydrochloride] | 100 to 1000 | 100 to 1000
COc1nc(Nc2nccc(-c3ccc(OC4CCOCC4)c(C#N)c3)n2)ccc1N1C[C@@H](C)N(C2COC2)[C@@H](C)C1 [Example 38, 5-[2-([5-[cis-3,5-dimethyl-4-(oxetan-3-yl)piperazin-1-yl]-6-methoxypyridin-2-yl]amino)pyrimidin-4-yl]-2-(oxan-4-yloxy)benzonitrile] | < 100 | < 100
COc1nc(Nc2nccc(-c3ccc(OCC4CN(C(=O)[C@@H](C)O)C4)c(C#N)c3)n2)ccc1N1CCN(C2COC2)CC1 [Example 280, 2-([1-[(2R)-2-hydroxypropanoyl]azetidin-3-yl]methoxy)-5-[2-([6-methoxy-5-[4-(oxetan-3-yl)piperazin-1-yl]pyridin-2-yl]amino)pyrimidin-4-yl]benzonitrile] | 100 to 1000 | 100 to 1000
